{"source": "paper PMC6332508", "about": "“A Promising PET Tracer for Imaging of α7 Nicotinic Acetylcholine Receptors in the Brain: Design, Synthesis, and in Vivo Evaluation of a Dibenzothiophene-Based Radioligand” (Molecules, 2015)", "test_system": "α7 nAChR", "assay": "Dynamic PET studies in piglets with kinetic modelling (2TCM)", "format": "in vivo", "conditions": "for BPND / Rate Constant K1 / Rate Constant k2 / Rate Constant k3 / Rate Constant k4 / VND: piglet brain, 240 min scan data", "protocol": "One-tissue and two-tissue compartment models (1TCM and 2TCM) were evaluated for mathematical description of [^18F]10a time-activity curves (TACs) in pig brain regions (Figure 3) using metabolite-corrected arterial plasma input functions. The 2TCM was identified as the more appropriate model based on its smaller Akaike information criterion (AIC) value. The four rate constants K1, k2, k3, and k4 were fitted and the non-displaceable volume of distribution (VND = K1/k2) and the binding potential (BPND = k3/k4) as defined by Innis et al. were calculated for each region of interest (Table 3 and Table 4).\nSix female animals were used in this study with anesthesia and surgery performed as described previously. In brief, the animals received initially a premedication with midazolam (1 mg∙kg^−1 i.m.) followed by induction of anesthesia with 3% isoflurane in 70% N2O/30% O2. All incision sites were infiltrated with 1% lidocaine, and the anesthesia was maintained with 1.5% isoflurane throughout the surgical procedure. A central venous catheter was introduced through the left external jugular vein and used for the administration of the radiotracer and drugs, and for volume substitution with heparinized (50 IE∙mL^−1) lactated Ringer’s solution (2 mL∙kg^−1∙h^−1). An endotracheal tube was inserted by tracheotomy for artificial ventilation (Servo Ventilator 900C, Siemens-Elema, Solna, Sweden) after immobilization with pancuronium bromide (0.2 mg∙kg^−1∙h^−1). The artificial ventilation was adjusted to obtain normoxia and normocapnia (Radiometer ABL 500, Copenhagen, Denmark). Polyurethane catheters (i.d., 0.5 mm) were advanced through the left and the right femoral arteries into the abdominal aorta to withdraw arterial blood samples for regular monitoring of blood gases and for radiotracer input function measurements and metabolite analyses. The body temperature was monitored by a rectal temperature probe and maintained at ~38 °C by a heating pad. After the surgical procedure has been completed, anesthesia was maintained with 0.5% isoflurane in 70% N2O/30% O2, and the animals were allowed to stabilize for 1 h before imaging procedure.\nPET imaging was performed according to the protocol described recently. In brief, a clinical tomograph (ECAT Exact HR+; Siemens Healthcare GmbH, Erlangen, Germany) was used with animals lying prone with the head placed in a custom-made head holder. For attenuation and scatter correction, transmission scans were acquired using three rotating ^68Ge rod sources. The radiotracer was injected as an intravenous (i.v.) bolus (10 mL saline with 340–494 MBq [^18F]10a) by a syringe pump within 2 min followed by flushing with 10 mL heparinized saline (50 IE∙mL^−1). PET scanning started at the time of injection (0 min) and dynamic emission data were acquired for a total of 240 min. Three animals were investigated under baseline conditions, and another three under blocking conditions with administration of 3 mg∙kg^−1 i.v. of the α7 nAChR partial agonist NS6740 at 3 min before radiotracer injection followed by a continuous infusion throughout the scan (1 mg∙kg^−1∙h^−1).\nArterial blood was sampled using a peristaltic pump during the first 20 min of the scan followed by manual sampling at 25, 30, 40, 50, 60, 90, 120, 150, 180, 210, and 240 min after injection. Plasma was obtained by centrifugation (13,000 rpm, 2 min at 21 °C) and total radioactivity concentration was measured using a gamma-counter (1470 Wizard; PerkinElmer, Shelton, CT, USA) cross-calibrated to the PET scanner. In addition, arterial whole blood was sampled manually at 4, 16, 30, 60, and 120 min p.i. and plasma obtained for metabolite analyses to determine the fraction of non-metabolized [^18F]10a.\nThe plasma input function was corrected for the presence of radioactive metabolites by determination of the parent fraction as described previously. […]", "key": {"[1]": {"conditions": "Cerebellum, blocking (NS6740), n = 3"}, "[2]": {"conditions": "Colliculi, blocking (NS6740), n = 3"}, "[3]": {"conditions": "Frontal Cortex, baseline, n = 3"}, "[4]": {"conditions": "Frontal Cortex, blocking (NS6740), n = 3"}, "[5]": {"conditions": "Hippocampus, blocking (NS6740), n = 3"}, "[6]": {"conditions": "Midbrain, blocking (NS6740), n = 3"}, "[7]": {"conditions": "Occipital Cortex, baseline, n = 3"}}, "note": "Values joined by “and” are separate entries in the source; they are usually repeats but may differ in a detail not shown here. Equal entries are not always repeated."}
{"smiles": "O=S1(=O)c2ccc([18F])cc2-c2ccc(N3CCN4CCC3CC4)cc21", "note": "[[^18F]10a]", "values": [{"measurement": "increase of VND under blocking conditions", "setting": "NS6740 vs baseline", "result": "up to 4 fold"}, {"measurement": "time of peak concentrations of radioactivity in the brain", "setting": "baseline, i.v., n = 3", "result": "8–10 min p.i."}, {"measurement": "SUVmax", "setting": "baseline, other brain regions", "result": "1.9–2.1"}, {"measurement": "SUVmax", "setting": "baseline, thalamus, colliculi, and midbrain", "result": "> 2.2"}, {"measurement": "BPND", "setting": "Cerebellum, baseline, n = 3", "result": "2.5 and 2.53 ± 0.57"}, {"measurement": "Rate Constant K1", "setting": "Cerebellum, baseline, n = 3", "result": "0.421 ± 0.048", "unit": "mL·cm^−3·min^−1"}, {"measurement": "Rate Constant k2", "setting": "Cerebellum, baseline, n = 3", "result": "0.131 ± 0.052", "unit": "min⁻¹"}, {"measurement": "Rate Constant k3", "setting": "Cerebellum, baseline, n = 3", "result": "0.067 ± 0.051", "unit": "min⁻¹"}, {"measurement": "Rate Constant k4", "setting": "Cerebellum, baseline, n = 3", "result": "0.026 ± 0.020", "unit": "min⁻¹"}, {"measurement": "VND", "setting": "Cerebellum, baseline, n = 3", "result": "3.62 ± 1.47"}, {"measurement": "BPND", "setting": "[1]", "result": "0.71 ± 1.10"}, {"measurement": "Rate Constant K1", "setting": "[1]", "result": "0.711 ± 0.148", "unit": "mL·cm^−3·min^−1"}, {"measurement": "Rate Constant k2", "setting": "[1]", "result": "0.076 ± 0.014", "unit": "min⁻¹"}, {"measurement": "Rate Constant k3", "setting": "[1]", "result": "0.016 ± 0.019", "unit": "min⁻¹"}, {"measurement": "Rate Constant k4", "setting": "[1]", "result": "0.011 ± 0.016", "unit": "min⁻¹"}, {"measurement": "VND", "setting": "[1]", "result": "9.75 ± 3.57"}, {"measurement": "BPND", "setting": "Colliculi, baseline, n = 3", "result": "2.68 ± 1.42"}, {"measurement": "Rate Constant K1", "setting": "Colliculi, baseline, n = 3", "result": "0.450 ± 0.072", "unit": "mL·cm^−3·min^−1"}, {"measurement": "Rate Constant k2", "setting": "Colliculi, baseline, n = 3", "result": "0.134 ± 0.074", "unit": "min⁻¹"}, {"measurement": "Rate Constant k3", "setting": "Colliculi, baseline, n = 3", "result": "0.070 ± 0.042", "unit": "min⁻¹"}, {"measurement": "Rate Constant k4", "setting": "Colliculi, baseline, n = 3", "result": "0.027 ± 0.018", "unit": "min⁻¹"}, {"measurement": "VND", "setting": "Colliculi, baseline, n = 3", "result": "4.19 ± 2.37"}, {"measurement": "BPND", "setting": "[2]", "result": "0.73 ± 0.74"}, {"measurement": "Rate Constant K1", "setting": "[2]", "result": "0.735 ± 0.182", "unit": "mL·cm^−3·min^−1"}, {"measurement": "Rate Constant k2", "setting": "[2]", "result": "0.066 ± 0.007", "unit": "min⁻¹"}, {"measurement": "Rate Constant k3", "setting": "[2]", "result": "0.011 ± 0.013", "unit": "min⁻¹"}, {"measurement": "Rate Constant k4", "setting": "[2]", "result": "0.007 ± 0.015", "unit": "min⁻¹"}, {"measurement": "VND", "setting": "[2]", "result": "11.41 ± 3.90"}, {"measurement": "BPND", "setting": "[3]", "result": "4.22 ± 2.93"}, {"measurement": "Rate Constant K1", "setting": "[3]", "result": "0.387 ± 0.059", "unit": "mL·cm^−3·min^−1"}, {"measurement": "Rate Constant k2", "setting": "[3]", "result": "0.182 ± 0.153", "unit": "min⁻¹"}, {"measurement": "Rate Constant k3", "setting": "[3]", "result": "0.142 ± 0.165", "unit": "min⁻¹"}, {"measurement": "Rate Constant k4", "setting": "[3]", "result": "0.027 ± 0.015", "unit": "min⁻¹"}, {"measurement": "VND", "setting": "[3]", "result": "3.32 ± 2.06"}, {"measurement": "BPND", "setting": "[4]", "result": "0.86 ± 0.92"}, {"measurement": "Rate Constant K1", "setting": "[4]", "result": "0.647 ± 0.117", "unit": "mL·cm^−3·min^−1"}, {"measurement": "Rate Constant k2", "setting": "[4]", "result": "0.055 ± 0.011", "unit": "min⁻¹"}, {"measurement": "Rate Constant k3", "setting": "[4]", "result": "0.014 ± 0.019", "unit": "min⁻¹"}, {"measurement": "Rate Constant k4", "setting": "[4]", "result": "0.010 ± 0.020", "unit": "min⁻¹"}, {"measurement": "VND", "setting": "[4]", "result": "12.34 ± 4.27"}, {"measurement": "BPND", "setting": "Hippocampus, baseline, n = 3", "result": "5.5 and 5.50 ± 1.01"}, {"measurement": "Rate Constant K1", "setting": "Hippocampus, baseline, n = 3", "result": "0.400 ± 0.023", "unit": "mL·cm^−3·min^−1"}, {"measurement": "Rate Constant k2", "setting": "Hippocampus, baseline, n = 3", "result": "0.188 ± 0.083", "unit": "min⁻¹"}, {"measurement": "Rate Constant k3", "setting": "Hippocampus, baseline, n = 3", "result": "0.145 ± 0.101", "unit": "min⁻¹"}, {"measurement": "Rate Constant k4", "setting": "Hippocampus, baseline, n = 3", "result": "0.025 ± 0.013", "unit": "min⁻¹"}, {"measurement": "VND", "setting": "Hippocampus, baseline, n = 3", "result": "2.43 ± 0.96"}, {"measurement": "BPND", "setting": "[5]", "result": "0.84 ± 1.70"}, {"measurement": "Rate Constant K1", "setting": "[5]", "result": "0.603 ± 0.118", "unit": "mL·cm^−3·min^−1"}, {"measurement": "Rate Constant k2", "setting": "[5]", "result": "0.063 ± 0.023 * min^−1"}, {"measurement": "Rate Constant k3", "setting": "[5]", "result": "0.024 ± 0.030", "unit": "min⁻¹"}, {"measurement": "Rate Constant k4", "setting": "[5]", "result": "0.011 ± 0.015", "unit": "min⁻¹"}, {"measurement": "VND", "setting": "[5]", "result": "10.81 ± 5.02"}, {"measurement": "BPND", "setting": "Midbrain, baseline, n = 3", "result": "3.40 ± 1.73"}, {"measurement": "Rate Constant K1", "setting": "Midbrain, baseline, n = 3", "result": "0.436 ± 0.045", "unit": "mL·cm^−3·min^−1"}, {"measurement": "Rate Constant k2", "setting": "Midbrain, baseline, n = 3", "result": "0.162 ± 0.117", "unit": "min⁻¹"}, {"measurement": "Rate Constant k3", "setting": "Midbrain, baseline, n = 3", "result": "0.121 ± 0.132", "unit": "min⁻¹"}, {"measurement": "Rate Constant k4", "setting": "Midbrain, baseline, n = 3", "result": "0.029 ± 0.022", "unit": "min⁻¹"}, {"measurement": "VND", "setting": "Midbrain, baseline, n = 3", "result": "4.04 ± 3.06"}, {"measurement": "BPND", "setting": "[6]", "result": "0.61 ± 0.77"}, {"measurement": "Rate Constant K1", "setting": "[6]", "result": "0.685 ± 0.131", "unit": "mL·cm^−3·min^−1"}, {"measurement": "Rate Constant k2", "setting": "[6]", "result": "0.063 ± 0.010", "unit": "min⁻¹"}, {"measurement": "Rate Constant k3", "setting": "[6]", "result": "0.013 ± 0.014", "unit": "min⁻¹"}, {"measurement": "Rate Constant k4", "setting": "[6]", "result": "0.012 ± 0.018", "unit": "min⁻¹"}, {"measurement": "VND", "setting": "[6]", "result": "11.17 ± 3.64"}, {"measurement": "BPND", "setting": "[7]", "result": "3.16 ± 1.11"}, {"measurement": "Rate Constant K1", "setting": "[7]", "result": "0.395 ± 0.053", "unit": "mL·cm^−3·min^−1"}, {"measurement": "Rate Constant k2", "setting": "[7]", "result": "0.123 ± 0.063", "unit": "min⁻¹"}, {"measurement": "Rate Constant k3", "setting": "[7]", "result": "0.099 ± 0.087", "unit": "min⁻¹"}, {"measurement": "Rate Constant k4", "setting": "[7]", "result": "0.030 ± 0.023", "unit": "min⁻¹"}]}
